From US20250332112A1, “IONIZABLE CATIONIC LIPIDS FOR LIPID NANOPARTICLES” (GENEVANT SCIENCES GMBH, priority 2022, published 2025) come the findings set out here.

Data set [1] in a line: Parent ionizable lipid remaining in liver at 6 h after luciferase mRNA LNP (LC-MS). The conditions noted are these: 6 h after IV 0.5 mg/kg Luciferase mRNA LNP. The class given is in vivo. The procedure:
Liver tissues were treated with PBS and homogenized with a FastPrep machine, 3 cycles of 5 m/s×15 s. Homogenates from the PBS-treated control animals was pooled and used for standard curve preparation. Samples were extracted into a deep well plate with 250 μL of an internal suitability standard. Plates were centrifuged for 15 min at 4° C. and 2000 rpm. Analysis was performed using an Agilent 6520 QTOF coupled to an Agilent 1290 UHPLC, using reverse-phase LC separation. Quantitation of the ionizable lipid was by MS/MS against a calibration curve spiked into appropriately matched blank matrix. Calibration used a similar class of synthetic lipid as internal standard.
At 6 h post-dose, some treatment groups reported lower levels of novel ionizable lipid in mouse liver compared to the benchmark (Tables 16-18).

Data set [2] is described as follows: Particle characteristics of LNPs containing luciferase mRNA and novel ionizable lipids. The class given is physicochemical. The conditions noted are these: luciferase mRNA LNP 1.6:54.6:32.8:10.9. Put shortly:
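LNPs made from PEG-lipid, ionizable lipid, cholesterol and phospholipid in ethanol, T-mixed with luciferase mRNA in 100 mM acetate pH 5. Products were dialysed, concentrated, and dialysed into 5 mM Tris, 10% sucrose, pH 8, then 0.2 μm filtered. mRNA was measured by RiboGreen, and size and polydispersity by dynamic light scattering on a Zetasizer.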

Data set [3] deals with luciferase activity in the liver. The data set can be described thus: Luciferase activity in liver after intravenous luciferase mRNA LNP. The class given is in vivo. The conditions noted are these: 0.5 mg/kg IV, 6 h post-IV administration, BALB/c mice (n = 4).
Where [4] appears, read: Table 18, female BALB/c mice (n = 4).
[5] abbreviates: Table 16, female BALB/c mice (n = 4).

Regarding `CCCCCCCCCC(CCCCCCC(F)C(=O)OCCC(CCCCC)CCCCC)N(CCCCCCCC(=O)OCCC(CCCCC)CCCCC)C(=O)CCCN(C)C` (stereo not drawn) [Compound 88, 3-pentyloctyl 9-[4-(dimethylamino)-N-{8-oxo-8-[(3-pentyloctyl)oxy]octyl}butanamido]-2-fluorooctadecanoate], the “Parent ionizable lipid remaining in liver, Average” value (shortened to “Parent ionizable lipid remaining”) in data set [1] (setting [4]) is given as 7.88 nmol/g liver. Besides, in data set [2] (Table 7), the “Final Product % EE” value is reported as 99%, the “Final Product PDI” value is on record as 0.04 and the “Final Product Z-avg” value was 72 nm. Besides, the “Luc Activity” value in data set [3] (Table 14) came to 1.64E+07 pg/g liver.
The matching figures for `CCCCCCCCCCON(C(=O)CCCN(C)C)C(CCCCCCCCC)CCCCCCC(F)C(=O)OCCC(CCCCC)CCCCC` (stereo not drawn) [Compound 38, 3-pentyloctyl 9-[N-(decyloxy)-4-(dimethylamino)butanamido]-2-fluorooctadecanoate]: 3.14 nmol/g liver, 98%, 0.17, 65 nm and 2.13E+07 pg/g liver.
Consider `CCCCCCCCCCC(CCCCCCCC(=O)OCCC(CCCCC)CCCCC)N(CCCCCCCCC(=O)OCCC(CCCCC)CCCCC)C(=O)CCCCN(C)C` (stereo not drawn) [Compound 65, 3-Pentyloctyl 9-(5-(dimethylamino)-N-(9-oxo-9-((3-pentyloctyl)oxy)nonyl)-pentanamido)-nonadecanoate], for which, in data set [1] (Table 17, female mice (n = 4)), the “Parent ionizable lipid remaining” value worked out at 27.84 nmol/g liver. Further, in data set [2] (Table 6), the “Final Product % EE” value came to 98%, the “Final Product PDI” value is 0.01 and the “Final Product Z-avg” value is listed as 83 nm. Also, in data set [3] (Table 13), the “Luc Activity” value amounted to 3.88E+07 pg/g liver.
For the compound `CCCCCCCCCCN(C(=O)CCCN(C)C)C(CCCCCCCCC)CCCCCCC(F)C(=O)OCC(CCCCCC)CCCCCCCC` (stereo not drawn) [Compound 77, 2-Hexyldecyl 9-(N-decyl-4-(dimethylamino)butanamido)-2-fluorooctadecanoate], the “Parent ionizable lipid remaining” value in data set [1] (setting [4]) was determined as 30.63 nmol/g liver. Also, in data set [2] (Table 7), the “Final Product % EE” value is on record as 99%, the “Final Product PDI” value amounted to 0.09 and the “Final Product Z-avg” value turned out to be 63 nm. Moreover, the “Luc Activity” value in data set [3] (Table 14) is 3.26E+07 pg/g liver.
Turning to `CCCCCCCCCCN(C(=O)CCCN(C)C)C(CCCCCCCCC)CCCCCCC(F)(F)C(=O)OCC(CCCCCC)CCCCCCCC` (stereo not drawn) [Compound 17, 2-Hexyldecyl 9-(N-decyl-4-(dimethylamino)butanamido)-2,2-difluorooctadecanoate], the “Parent ionizable lipid remaining” value in data set [1] (Table 17, female mice (n = 4)) worked out at 24.00 nmol/g liver. Besides, the “Parent ionizable lipid remaining” value in data set [1] (setting [4]) stood at 36.58 nmol/g liver. Also, in data set [2] (Table 6), the “Final Product % EE” value was 99%, the “Final Product PDI” value is listed as 0.10 and the “Final Product Z-avg” value was determined as 68 nm. The “Luc Activity” value in data set [3] (Table 13) was 5.52E+07 pg/g liver.
In the case of `CCCCCCCCCCCCC(=O)N(CCCN(C)C)C(CCCCCCCCCC)CCCCC(=O)OCc1cc(CCCCCC)cc(CCCCCC)c1` (stereo not drawn) [Compound 61, 3,5-Dihexylbenzyl 6-(N-(3-(dimethylamino)propyl)tridecanamido)hexadecanoate], the “Parent ionizable lipid remaining” value in data set [1] (setting [5]) is 27.21 nmol/g liver. For the same compound, in data set [2] (Table 3), the “Final Product % EE” value was 99%, the “Final Product PDI” value is listed as 0.05 and the “Final Product Z-avg” value was 76 nm. In addition, in data set [3] (Table 10), the “Luc Activity” value was 2.45E+07 pg/g liver.
Take `CCCCCCCCCCC(CCCCC(=O)OCc1cc(CCCCCC)cc(CCCCCC)c1)N(CCCN(C)C)C(=O)C(CCCCCC)CCCCCCCC` (stereo not drawn) [Compound 62, 3,5-Dihexylbenzyl 6-(N-(3-(dimethylamino)propyl)-2-hexyldecanamido)hexadecanoate]: the “Parent ionizable lipid remaining” value in data set [1] (setting [5]) is 20.17 nmol/g liver. In data set [2] (Table 3), the “Final Product % EE” value was found to be 98%, the “Final Product PDI” value is 0.08 and the “Final Product Z-avg” value is on record as 67 nm. The “Luc Activity” value in data set [3] (Table 10) came to 7.84E+06 pg/g liver.
`CCCCCCCCCCON(C(=O)CCCCN(C)C)C(CCCCCCCCCC)CCCCCC(=O)OCC(CCCCCC)CCCCCCCC` (stereo not drawn) [Compound 47, 2-Hexyldecyl 7-(N-(decyloxy)-5-(dimethylamino)pentanamido)heptadecanoate]: in data set [1] (setting [4]), the “Parent ionizable lipid remaining” value stood at 54.78 nmol/g liver. In addition, in data set [2] (Table 7), the “Final Product % EE” value is given as 98%, the “Final Product PDI” value is 0.07 and the “Final Product Z-avg” value turned out to be 77 nm. The “Luc Activity” value in data set [3] (Table 14) stood at 8.09E+07 pg/g liver.
On to `CCCCCCCCCCC(CCCCCC(=O)OCC(CCCCCC)CCCCCCCC)N(CCCCCCCCCC)C(=O)CCCN(C)C` (stereo not drawn) [Compound 4, 2-Hexyldecyl 7-(N-decyl-4-(dimethylamino)butanamido)heptadecanoate], for which the “Parent ionizable lipid remaining” value in data set [1] (setting [5]) was determined as 18.97 nmol/g liver. Also, in data set [2] (Table 3), the “Final Product % EE” value amounted to 99%, the “Final Product PDI” value worked out at 0.03 and the “Final Product Z-avg” value is 82 nm. Moreover, in data set [3] (Table 10), the “Luc Activity” value is reported as 7.84E+07 pg/g liver.
In the case of `CCCCC/C=C\CCCC(CCC/C=C\CCCCC)=NNC(=O)CC(CCCCCCCCC)N(CCCN(C)C)C(=O)C(CCCCCC)CCCCCCCC` (stereo not drawn) [Compound 57, N-(3-(dimethylamino)propyl)-N-(1-(2-((6Z,15Z)-henicosa-6,15-dien-11-ylidene)hydrazineyl)-1-oxododecan-3-yl)-2-hexyldecanamide], the “Parent ionizable lipid remaining” value in data set [1] (setting [5]) is recorded as 15.88 nmol/g liver. Moreover, in data set [2] (Table 3), the “Final Product % EE” value is 80%, the “Final Product PDI” value stood at 0.03 and the “Final Product Z-avg” value worked out at 84 nm. For the same compound, the “Luc Activity” value in data set [3] (Table 10) is listed as 2.43E+06 pg/g liver.
In the case of `CCCCCCCCCCN(C(=O)CCCN(C)C)C(CCCCCCCCC)CC(=O)OCC(CCCCCC)CCCCCCCC` (stereo not drawn) [Compound 32, 2-hexyldecyl 3-[N-decyl-4-(dimethylamino)-butanamido]dodecanoate], the “Parent ionizable lipid remaining” value in data set [1] (setting [5]) is given as 21.66 nmol/g liver. In addition, in data set [2] (Table 3), the “Final Product % EE” value is recorded as 99%, the “Final Product PDI” value came to 0.02 and the “Final Product Z-avg” value is reported as 85 nm. For the same compound, the “Luc Activity” value in data set [3] (Table 10) is 3.07E+07 pg/g liver.
On to `CCCCCCCCCCC(CCCCCCCC(=O)OCC(CCCCCC)CCCCCCCC)N(CCCCCCCC(=O)OCC(CCCCCC)CCCCCCCC)C(=O)CCCCN(C)C` (stereo not drawn) [Compound 74, 2-Hexyldecyl 9-(5-(dimethylamino)-N-(8-((2-hexyldecyl)oxy)-8-oxooctyl)-pentanamido)-nonadecanoate], for which, in data set [1] (setting [4]), the “Parent ionizable lipid remaining” value came out at 17.92 nmol/g liver. In addition, in data set [2] (Table 7), the “Final Product % EE” value was determined as 99%, the “Final Product PDI” value is 0.05 and the “Final Product Z-avg” value is recorded as 89 nm. Moreover, the “Luc Activity” value in data set [3] (Table 14) is recorded as 6.77E+07 pg/g liver.
As for `CCCCCCCCCC(CCCCCCC(F)C(=O)OCCC(CCCCC)CCCCC)N(CCCCCC(F)C(=O)OCCC(CCCCC)CCCCC)C(=O)CCCN(C)C` (stereo not drawn) [Compound 34, 3-pentyloctyl 9-[4-(dimethylamino)-N-{6-fluoro-7-oxo-7-[(3-pentyloctyl)oxy]heptyl}butanamido]-2-fluorooctadecanoate], the “Parent ionizable lipid remaining” value in data set [1] (setting [4]) amounted to 1.78 nmol/g liver. For the same compound, in data set [2] (Table 7), the “Final Product % EE” value was found to be 99%, the “Final Product PDI” value stood at 0.10 and the “Final Product Z-avg” value is listed as 70 nm. For the same compound, the “Luc Activity” value in data set [3] (Table 14) was 1.91E+06 pg/g liver.
Taken in the same sequence, the figures for `CCCCCCCCCCC(CCCCCCCC(=O)OCCC(CCCCC)CCCCC)N(CCCCCCCC(=O)OCCC(CCCCC)CCCCC)C(=O)CCCCN(C)C` (stereo not drawn) [Compound 73, 3-Pentyloctyl 9-(5-(dimethylamino)-N-(8-oxo-8-((3-pentyloctyl)oxy)octyl)-pentanamido)-nonadecanoate] were 31.41 nmol/g liver, 99%, 0.00, 82 nm and 3.64E+07 pg/g liver.
As to `CCCCCCCCCCON(C(=O)CCCN(C)C)C(CCCCCCCCCC)CCCCCCC(F)(F)C(=O)OCCC(CCCCC)CCCCC` (stereo not drawn) [Compound 39, 3-pentyloctyl 9-[N-(decyloxy)-4-(dimethylamino)butanamido]-2,2-difluorononadecanoate], the “Parent ionizable lipid remaining” value in data set [1] (setting [4]) is 2.91 nmol/g liver. Also, in data set [2] (Table 7), the “Final Product % EE” value is 98%, the “Final Product PDI” value came to 0.19 and the “Final Product Z-avg” value came out at 59 nm. In addition, the “Luc Activity” value in data set [3] (Table 14) came out at 4.30E+06 pg/g liver.
Turning to `CCCCCCCCCCC(CCCCCCCC(=O)OC(CCCCCC)CCCCCC)N(CCCCCCCCCC)C(=O)CCCN(C)C` (stereo not drawn) [Compound 5, Tridecan-7-yl 9-(N-decyl-4-(dimethylamino)butanamido)nonadecanoate], the “Parent ionizable lipid remaining” value in data set [1] (Table 17, female mice (n = 4)) came out at 49.53 nmol/g liver. In addition, in data set [2] (Table 6), the “Final Product % EE” value was 99%, the “Final Product PDI” value turned out to be 0.05 and the “Final Product Z-avg” value worked out at 68 nm. Further, the “Luc Activity” value in data set [3] (Table 13) was determined as 9.49E+07 pg/g liver.
